In brackets after ≈: the same amount, converted by molar mass.
test: Antioxidant activity assessed as hydrogen peroxide scavenging activity; type: physicochemical

Row | IC50 [µg/mL] | SMILES
1 | 24 (≈ 81 µM) | Oc1ccc(-c2nnc(S)n2/N=C/c2ccccc2)cc1
2 | 38 (≈ 111 µM) | O=[N+]([O-])c1cccc(/C=N/n2c(S)nnc2-c2ccc(O)cc2)c1

More lines, now with the values behind:

Row | SMILES | IC50 [µg/mL]
3 | Oc1ccc(-c2nnc(S)n2/N=C/c2cccc(O)c2)cc1 | 20 (≈ 64 µM)
4 | Oc1ccc(-c2nnc(S)n2/N=C/c2ccccc2Cl)cc1 | 60 (≈ 181 µM)
5 | O=[N+]([O-])c1ccccc1/C=N/n1c(S)nnc1-c1ccc(O)cc1 | 32 (≈ 93.7 µM)
